Experimental data: ChEMBL document CHEMBL5346950, “Development of Biaryl-Containing Aldo-Keto Reductase 1C3 (AKR1C3) Inhibitors for Reversing AKR1C3-Mediated Drug Resistance in Cancer Treatment” (J Med Chem, 2023)

Columns and labels:
MCF7 [1] = test: Synergistic antitumor activity against human MCF7 cells expressing AKR1C3 xenografted in BALB/c nude mouse assessed as tumor growth inhibition at 10 mg/kg, po administered every 2 days for 3 weeks in presence of doxorubicin and measured every 3 days by caliper analysis relative to control; type: functional
[2] = Elimination phase half life in Sprague-Dawley rat at 10 mg/kg, IG measured for 5760 mins by LC-MS/MS analysis; type: ADME, organism-based; conditions: in vivo, po, read-out: beta t1/2 (converted)
MCF7 [3] = test: Synergistic antiproliferative activity against human MCF7 cells overexpressing AKR1C3 assessed as dose reduction index for doxorubicin at 25 uM incubated for 72 hrs in presence of doxorubicin at 100 nM by Chou-Talalay method; type: functional
[4] = Cmax in Sprague-Dawley rat at 10 mg/kg, IG measured for 5760 mins by LC-MS/MS analysis; type: ADME, organism-based; design: dose 10 mg/kg, time 5760 min, route ig; conditions: in vivo, po
[5] = Toxicity in BALB/c nude mouse xenografted with human MCF7 cells expressing AKR1C3 assessed as histopathological changes in liver at 10 mg/kg, po administered every 2 days for 3 weeks in presence of doxorubicin by H and E staining based analysis; type: organism-based; conditions: in vivo, 504 h
[6] = Toxicity in BALB/c nude mouse xenografted with human MCF7 cells expressing AKR1C3 assessed as histopathological changes in spleen at 10 mg/kg, po administered every 2 days for 3 weeks in presence of doxorubicin by H and E staining based analysis; type: organism-based; conditions: in vivo, 504 h
[7] = target: T1, Aldo-keto reductase family 1 member C1 (Homo sapiens, UniProt Q04828); test: Inhibition of human recombinant AKR1C1 transfected in Escherichia coli BL21 (DE3) pLysS competent cells using S-tetralol as substrate assessed as inhibition of NADP+ dependent substrate oxidation incubated for 10 mins by fluorescence microplate reader assay
T1 sequence (Q04828 whole entry): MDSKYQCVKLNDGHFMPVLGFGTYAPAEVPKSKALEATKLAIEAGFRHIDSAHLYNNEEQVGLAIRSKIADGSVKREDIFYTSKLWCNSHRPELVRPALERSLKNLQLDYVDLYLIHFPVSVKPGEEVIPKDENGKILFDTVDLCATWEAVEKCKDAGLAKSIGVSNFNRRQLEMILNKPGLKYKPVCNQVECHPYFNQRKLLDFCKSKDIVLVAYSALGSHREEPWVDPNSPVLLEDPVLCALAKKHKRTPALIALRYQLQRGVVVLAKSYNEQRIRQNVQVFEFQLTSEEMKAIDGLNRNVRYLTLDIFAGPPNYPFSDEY

[8] = Toxicity in BALB/c nude mouse xenografted with human MCF7 cells expressing AKR1C3 assessed as reduction in body weight at 10 mg/kg, po administered every 2 days for 3 weeks in presence of doxorubicin and measured every 3 days; type: organism-based; conditions: in vivo, 504 h
[9] = Toxicity in BALB/c nude mouse xenografted with human MCF7 cells expressing AKR1C3 assessed as reduction in body weight at 10 mg/kg, po administered every 2 days for 3 weeks and measured every 3 days; type: organism-based; conditions: in vivo, 504 h
MCF7 [10] = test: Synergistic antiproliferative activity against human MCF7 cells overexpressing AKR1C3 assessed as combination index at 25 uM incubated for 72 hrs in presence of doxorubicin at 100 nM by Chou-Talalay method; type: functional
MCF7 [11] = test: Synergistic antiproliferative activity against human MCF7 cells overexpressing AKR1C3 assessed as combination index at 50 uM incubated for 72 hrs in presence of doxorubicin at 50 nM by Chou-Talalay method; type: functional
[12] = Elimination phase half life in Sprague-Dawley rat at 2 mg/kg, iv measured for 5760 mins by LC-MS/MS analysis; type: ADME, organism-based; conditions: in vivo, read-out: beta t1/2 (converted)
[13] = Toxicity in BALB/c nude mouse xenografted with human MCF7 cells expressing AKR1C3 assessed as histopathological changes in lungs at 10 mg/kg, po administered every 2 days for 3 weeks by H and E staining based analysis; type: organism-based; conditions: in vivo, 504 h
[14] = target: Aldo-keto reductase family 1 member B1 (Homo sapiens, UniProt P15121); test: Inhibition of AKR1B1 (unknown origin) transfected in Escherichia coli BL21 (DE3) pLysS competent cells using pyridine-3-aldehyde as substrate assessed as inhibition of NADP+ dependent substrate oxidation incubated for 10 mins
[15] = Metabolic stability in liver microsomes (unknown origin) assessed as half life; type: ADME, Microsome
MCF7 [16] = test: Synergistic antiproliferative activity against human MCF7 cells overexpressing AKR1C3 assessed as combination index at 10 uM incubated for 72 hrs in presence of doxorubicin at 20 nM by Chou-Talalay method; type: functional
MCF7 [17] = test: Antiproliferative activity against human MCF7 cells overexpressing AKR1C3 assessed as cell survival rate at 50 uM incubated for 72 hrs by MTT assay relative to control; type: functional
[18] = Toxicity in BALB/c nude mouse xenografted with human MCF7 cells expressing AKR1C3 assessed as histopathological changes in lungs at 10 mg/kg, po administered every 2 days for 3 weeks in presence of doxorubicin by H and E staining based analysis; type: organism-based; conditions: in vivo, 504 h
MCF7 [19] = test: Synergistic antiproliferative activity against human MCF7 cells overexpressing AKR1C3 assessed as dose reduction index for doxorubicin at 25 uM incubated for 72 hrs in presence of doxorubicin at 200 nM by Chou-Talalay method; type: functional
[20] = Cmax in Sprague-Dawley rat at 2 mg/kg, iv measured for 5760 mins by LC-MS/MS analysis; type: ADME, organism-based; design: dose 2 mg/kg, time 5760 min, route iv; conditions: in vivo
[21] = Toxicity in BALB/c nude mouse xenografted with human MCF7 cells expressing AKR1C3 assessed as histopathological changes in spleen at 10 mg/kg, po administered every 2 days for 3 weeks by H and E staining based analysis; type: organism-based; conditions: in vivo, 504 h
[22] = MRT (0 to infinity) in Sprague-Dawley rat at 10 mg/kg, IG measured for 5760 mins by LC-MS/MS analysis; type: ADME, organism-based; conditions: in vivo, po
MCF7 [23] = test: Synergistic antiproliferative activity against human MCF7 cells overexpressing AKR1C3 assessed as dose reduction index for doxorubicin at 50 uM incubated for 72 hrs in presence of doxorubicin at 20 nM by Chou-Talalay method; type: functional
[24] = AUC (0 to t) in Sprague-Dawley rat at 2 mg/kg, iv measured for 5760 mins by LC-MS/MS analysis; type: ADME, organism-based; design: dose 2 mg/kg, time 5760 min, route iv; conditions: in vivo
[25] = Bioavailability in Sprague-Dawley rat at 10 mg/kg, IG measured for 5760 mins by LC-MS/MS analysis; type: ADME, organism-based; conditions: in vivo, po
MCF7 [26] = test: Antitumor activity against human MCF7 cells expressing AKR1C3 xenografted in BALB/c nude mouse assessed as tumor growth inhibition at 10 mg/kg, po administered every 2 days for 3 weeks and measured every 3 days by caliper analysis relative to control; type: functional
[27] = Toxicity in BALB/c nude mouse xenografted with human MCF7 cells expressing AKR1C3 assessed as histopathological changes in heart at 10 mg/kg, po administered every 2 days for 3 weeks by H and E staining based analysis; type: organism-based; conditions: in vivo, 504 h
MCF7 [28] = test: Synergistic antiproliferative activity against human MCF7 cells overexpressing AKR1C3 assessed as combination index at 10 uM incubated for 72 hrs in presence of doxorubicin at 200 nM by Chou-Talalay method; type: functional
[29] = MRT (0 to infinity) in Sprague-Dawley rat at 2 mg/kg, iv measured for 5760 mins by LC-MS/MS analysis; type: ADME, organism-based; conditions: in vivo

O=C(O)C1(c2ccc(-c3cc(Cl)cc(Cl)c3)c(F)c2)CC1
TGI (MCF7 [1]): 87.46%
half-life [2]: 21.3 h
Activity_index (MCF7 [3]): 5.813
Cmax [4]: 45500 ng/mL
Activity [5]: Non-Toxic
Activity [6]: Non-Toxic
IC50 [7]: 2930 nM
Activity [8]: Non-Toxic
Activity [9]: Non-Toxic
CI (MCF7 [10]): 0.351
CI (MCF7 [11]): 0.239
half-life [12]: 19.1 h
Activity [13]: Non-Toxic
IC50 [14]: > 10000 nM
half-life [15]: 6.94 h
CI (MCF7 [16]): 0.36
Survival (MCF7 [17]): >80%
Activity [18]: Non-Toxic
Activity_index (MCF7 [19]): 5.636
Cmax [20]: 24500 ng/mL
Activity [21]: Non-Toxic
MRT inf [22]: 36.6 h
Activity_index (MCF7 [23]): 47.168
AUC(0-t) at 96 h [24]: 552 ng·h/mL
bioavailability [25]: 53.7%
TGI (MCF7 [26]): 36.98%
Activity [27]: Non-Toxic
CI (MCF7 [28]): 0.319
MRT inf [29]: 51.1 h
